From patent US20250179061A1 (SIRONAX LTD., priority 2022, published 2025) come the findings set out here.

The test system of this experiment is HT-29 cells. In words: HT-29 necroptosis cell viability assay (TNF-α/SMAC mimetic/zVAD-FMK, CellTiter-Glo). It counts as cell-based. Particulars: Homo sapiens. Put shortly:
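HT-29 cells (~5,000/well, overnight) in FBS-free McCoy's 5A with TNF-α 10 ng/ml, SMAC mimetic 6 μM and zVAD-FMK 10 μM plus 10-point 1:3 compound titration, 20 h at 37°C. ATP measured by CellTiter-Glo luminescence; IC50 as geometric mean of duplicates.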

Setting [1] is: HT-29, HT-29 necroptosis cell viability assay, class symbols for IC50, read-out: Activity.
The mark [2] stands for this setting: HT-29, HT-29 necroptosis cell viability, IC50 class symbols, read-out: Activity.
Setting [3] is: HT-29, HT-29 cells, necroptosis induced by TNF-α/SMAC mimetic/zVAD-FMK, CellTiter-Glo, read-out: Activity (IC50 class).
The mark [4] stands for this setting: HT-29 cells stimulated with TNF-α (10 ng/ml), SMAC mimetic (6 μM) and zVAD-FMK (10 μM), 20 hours, CellTiter-Glo ATP luminescence, geometric mean IC50 from 10 points, read-out: Activity.

Structures can show the parent of a compound that is named as a salt. Where two headings read alike, the source gives them in different places.

In the case of `Cn1nc(C(C)(C)O)cc1Oc1ccc(-n2nc3n(c2=O)C(c2ccccc2)CC3)cc1F` (stereo not shown) [Example 130, 2-(3-fluoro-4-((3-(2-hydroxypropan-2-yl)-1-methyl-1H-pyrazol-5-yl)oxy)phenyl)-5-phenyl-2,5,6,7-tetrahydro-3H-pyrrolo[2,1-c][1,2,4]triazol-3-one], the IC50 under setting [1] is under 100 nM.

Consider `Cc1cnc(N2CCC(C)(C#N)C2)cc1Oc1ccc(-n2ncn(Cc3c(F)cccc3F)c2=O)cc1Cl` (stereo not shown) [Example 397, 1-(4-(2-chloro-4-(4-(2,6-difluorobenzyl)-5-oxo-4,5-dihydro-1H-1,2,4-triazol-1-yl)phenoxy)-5-methylpyridin-2-yl)-3-methylpyrrolidine-3-carbonitrile], for which the IC50 under setting [2] was under 100 nM.

For the compound `O=c1n(Cc2c(F)cccc2F)cnn1-c1ccc(Oc2ccnc(N3CC4(CCO4)C3)c2)cc1` [Example 300, 4-[(2,6-difluorophenyl)methyl]-2-[4-[[2-(1-oxa-6-azaspiro[3.3]heptan-6-yl)-4-pyridyl]oxy]phenyl]-1,2,4-triazol-3-one], the IC50 under setting [2] fell in the range of 100 to 1000 nM.

Regarding `N#CC1CN(c2cc(Oc3ccc(-n4ncn(Cc5c(F)cccc5F)c4=O)cc3)ccn2)CC1O` (stereo not shown) [Example 264, 1-(4-(4-(4-(2,6-difluorobenzyl)-5-oxo-4,5-dihydro-1H-1,2,4-triazol-1-yl)phenoxy)pyridin-2-yl)-4-hydroxypyrrolidine-3-carbonitrile], the IC50 under setting [2] is under 100 nM.

For the compound `Cc1nc(N)sc1Sc1ccc(-n2ncn(Cc3ccccc3)c2=O)cc1` [Example 458, 2-(4-((2-amino-4-methylthiazol-5-yl)thio)phenyl)-4-benzyl-2,4-dihydro-3H-1,2,4-triazol-3-one], the IC50 under setting [2] was under 100 nM.

Take `O=c1n(Cc2c(F)cccc2F)cnn1-c1ccc(Oc2cc(N3CC4(C3)CN(C3CC3)C4)ncc2F)c(F)c1` [Example 680, 2-(4-((2-(6-cyclopropyl-2,6-diazaspiro[3.3]heptan-2-yl)-5-fluoropyridin-4-yl)oxy)-3-fluorophenyl)-4-(2,6-difluorobenzyl)-2,4-dihydro-3H-1,2,4-triazol-3-one]: the IC50 under setting [3] is under 100 nM.

Turning to `O=c1n(Cc2ccccc2)cnn1-c1ccc(Cc2ccccc2)cc1` [Example 66, 4-benzyl-2-(4-benzylphenyl)-2,4-dihydro-3H-1,2,4-triazol-3-one], the IC50 under setting [4] was under 100 nM.

In the case of `Cc1nc(C#N)sc1Oc1ccc(-n2ncn(Cc3cc(Cl)ccn3)c2=O)cc1F` [Example 574, 5-(4-(4-((4-chloropyridin-2-yl)methyl)-5-oxo-4,5-dihydro-1H-1,2,4-triazol-1-yl)-2-fluorophenoxy)-4-methylthiazole-2-carbonitrile], the IC50 under setting [1] lay in the range of 100 to 1000 nM.

Regarding `COc1cc(Oc2nc(C)c(-n3ncn(Cc4c(F)cccc4F)c3=O)s2)ccn1` [Example 169, 4-(2,6-difluorobenzyl)-2-(2-((2-methoxypyridin-4-yl)oxy)-4-methylthiazol-5-yl)-2,4-dihydro-3H-1,2,4-triazol-3-one], the IC50 under setting [1] was in the range of 1000 to 10000 nM.

Turning to `Cc1nc(N)sc1S(=O)(=O)c1ccc(-n2ncn(Cc3ccccc3)c2=O)cc1` [Example 627, 2-(4-((2-amino-4-methylthiazol-5-yl)sulfonyl)phenyl)-4-benzyl-2,4-dihydro-3H-1,2,4-triazol-3-one], the IC50 under setting [1] was 100 to 1000 nM.

`CCOC1CN(c2nccc(Cl)c2Oc2ccc(-n3nc(C)n(Cc4ccccc4)c3=O)cc2)C1` [Example 305, 4-benzyl-2-[4-[[4-chloro-2-(3-ethoxyazetidin-1-yl)-3-pyridyl]oxy]phenyl]-5-methyl-1,2,4-triazol-3-one]: the IC50 under setting [2] fell in the range of 100 to 1000 nM.

For `CCOC1CN(c2cc(Oc3ccc(-n4ncn(Cc5c(F)cccc5F)c4=O)cc3F)c(C)cn2)C1` [Example 370, 4-(2,6-difluorobenzyl)-2-(4-((2-(3-ethoxyazetidin-1-yl)-5-methylpyridin-4-yl)oxy)-3-fluorophenyl)-2,4-dihydro-3H-1,2,4-triazol-3-one], the IC50 under setting [2] is under 100 nM.

On to `Cc1ccc(C)n1Cc1ccc(-n2ncn(Cc3c(F)cccc3F)c2=O)cc1` [Example 207, 4-(2,6-difluorobenzyl)-2-(4-((2,5-dimethyl-1H-pyrrol-1-yl)methyl)phenyl)-2,4-dihydro-3H-1,2,4-triazol-3-one], for which the IC50 under setting [1] was under 100 nM.

`C[C@@H](Nc1cc(Oc2ccc(-n3ncn(Cc4c(F)cccc4F)c3=O)cc2)ccn1)C1CCC1` [Example 348, (R)-2-(4-((2-((1-cyclobutylethyl)amino)pyridin-4-yl)oxy)phenyl)-4-(2,6-difluorobenzyl)-2,4-dihydro-3H-1,2,4-triazol-3-one]: the IC50 under setting [2] was in the range of 100 to 1000 nM.

Consider `Cc1nc(C2=NCCN2C)sc1Oc1ccc(-n2ncn(Cc3c(F)cccc3F)c2=O)cc1` [Example 633, 4-(2,6-difluorobenzyl)-2-(4-((4-methyl-2-(1-methyl-4,5-dihydro-1H-imidazol-2-yl)thiazol-5-yl)oxy)phenyl)-2,4-dihydro-3H-1,2,4-triazol-3-one], for which the IC50 under setting [3] is under 100 nM.

For `CC1(C#N)CN(c2nccc(Oc3ccc(-n4ncn(Cc5c(F)cccc5F)c4=O)cc3Cl)c2Cl)C1` [Example 256, 1-(3-chloro-4-(2-chloro-4-(4-(2,6-difluorobenzyl)-5-oxo-4,5-dihydro-1H-1,2,4-triazol-1-yl)phenoxy)pyridin-2-yl)-3-methylazetidine-3-carbonitrile], under setting [2], the IC50 was under 100 nM.

In the case of `CCOC1(C)CN(c2cc(Oc3ccc(-n4ncn(Cc5c(F)cccc5Cl)c4=O)cc3)ccn2)C1` [Example 489, 4-(2-chloro-6-fluorobenzyl)-2-(4-((2-(3-ethoxy-3-methylazetidin-1-yl)pyridin-4-yl)oxy)phenyl)-2,4-dihydro-3H-1,2,4-triazol-3-one], under setting [1], the IC50 lay within 100 to 1000 nM.

Take `Cc1cccnc1Cn1cnn(-c2ccc(Oc3sc(C(N)=O)nc3C)c(F)c2)c1=O` [Example 26, 5-(2-fluoro-4-(4-((3-methylpyridin-2-yl)methyl)-5-oxo-4,5-dihydro-1H-1,2,4-triazol-1-yl)phenoxy)-4-methylthiazole-2-carboxamide]: under setting [4], the IC50 lay within 100 to 1000 nM.

As for `Cc1nc(N2CC(C)(NC(=O)OC(C)(C)C)C2)sc1C(C)(O)c1ccc(-n2ncn(Cc3c(F)cccc3F)c2=O)cc1` (stereo not shown) [Example 516, tert-butyl (1-(5-(1-(4-(4-(2,6-difluorobenzyl)-5-oxo-4,5-dihydro-1H-1,2,4-triazol-1-yl)phenyl)-1-hydroxyethyl)-4-methylthiazol-2-yl)-3-methylazetidin-3-yl)carbamate], the IC50 under setting [1] was under 100 nM.

As for `CC1(C#N)CN(c2cc(Oc3ccc(-n4ncn(Cc5c(F)cccc5F)c4=O)cc3)c(F)cn2)C1` [Example 323, 1-(4-(4-(4-(2,6-difluorobenzyl)-5-oxo-4,5-dihydro-1H-1,2,4-triazol-1-yl)phenoxy)-5-fluoropyridin-2-yl)-3-methylazetidine-3-carbonitrile], under setting [2], the IC50 is 100 to 1000 nM.

As for `Cc1nc(C(N)=O)sc1Oc1ccc(-n2nc3n(c2=O)[C@H](c2ccccc2)CC3)cc1F` (single isomer, unassigned) [Example 14], the IC50 under setting [4] is under 100 nM.

With `Cc1nc(C(=O)N2CC(N)C2)sc1Oc1ccc(-n2ncn(Cc3ccccc3F)c2=O)cc1F` [Example 600, 2-(4-((2-(3-aminoazetidine-1-carbonyl)-4-methylthiazol-5-yl)oxy)-3-fluorophenyl)-4-(2-fluorobenzyl)-2,4-dihydro-3H-1,2,4-triazol-3-one], the IC50 under setting [1] is under 100 nM.

On to `Cc1nc(C(=O)N2CC(C)(O)C2)sc1Oc1ccc(-n2ncn(Cc3c(F)cccc3F)c2=O)cc1F` [Example 597, 4-(2,6-difluorobenzyl)-2-(3-fluoro-4-((2-(3-hydroxy-3-methylazetidine-1-carbonyl)-4-methylthiazol-5-yl)oxy)phenyl)-2,4-dihydro-3H-1,2,4-triazol-3-one], for which the IC50 under setting [1] is under 100 nM.

As for `O=c1n(Cc2c(F)cccc2F)cnn1-c1ccc(Oc2cc(N3CC4(CCN4)C3)ncc2Cl)c(F)c1` [Example 411, 2-(4-((5-chloro-2-(1,6-diazaspiro[3.3]heptan-6-yl)pyridin-4-yl)oxy)-3-fluorophenyl)-4-(2,6-difluorobenzyl)-2,4-dihydro-3H-1,2,4-triazol-3-one hydrochloride], under setting [2], the IC50 was under 100 nM.

As to `O=c1n(Cc2c(F)cccc2F)cnn1-c1ccc(Oc2ccnc(N3CCCCC3)c2)cc1` [Example 529, 4-(2,6-difluorobenzyl)-2-(4-((2-(piperidin-1-yl)pyridin-4-yl)oxy)phenyl)-2,4-dihydro-3H-1,2,4-triazol-3-one], the IC50 under setting [1] was 100 to 1000 nM.

On to `Cn1c(C(C)(C)O)cnc1Oc1ccc(-n2ncn(Cc3c(F)cccc3F)c2=O)cc1F` [Example 132, 4-(2,6-difluorobenzyl)-2-(3-fluoro-4-((5-(2-hydroxypropan-2-yl)-1-methyl-1H-imidazol-2-yl)oxy)phenyl)-2,4-dihydro-3H-1,2,4-triazol-3-one], for which the IC50 under setting [1] lay in the range of 1000 to 10000 nM.

Regarding `C[C@H]1[C@@H](N(C)C)CN1c1cc(Oc2ccc(-n3ncn(Cc4c(F)cccc4F)c3=O)cc2F)c(F)cn1` [Example 241, 4-(2,6-difluorobenzyl)-2-(4-((2-((2S,3S)-3-(dimethylamino)-2-methylazetidin-1-yl)-5-fluoropyridin-4-yl)oxy)-3-fluorophenyl)-2,4-dihydro-3H-1,2,4-triazol-3-one], the IC50 under setting [2] was under 100 nM.

Turning to `CCOC(=O)c1scnc1Oc1ccc(-n2ncn(Cc3c(F)cccc3F)c2=O)cc1F` [Example 93, ethyl 4-(4-(4-(2,6-difluorobenzyl)-5-oxo-4,5-dihydro-1H-1,2,4-triazol-1-yl)-2-fluorophenoxy)thiazole-5-carboxylate], the IC50 under setting [4] was in the range of 100 to 1000 nM.
